Data published in US10160762B2, “6-alkyl dihydropyrazolopyrimidinone compounds as PDE2 inhibitors” (Merck Sharp & Dohme Corp., priority 2015, dated 2018).

Molecular target: T1, human PDE2A1 (Homo sapiens, UniProt O00408)
T1 construct: GST; purchased BPS Bioscience (San Diego, Calif.) 60020; host or cells: insect cells
Experiment: IMAP FP PDE assay, human PDE2A1
Type: biochemical
Settings: Lab B; read-out: Human PDE2 Ki (nM) Lab B
Protocol: Selectivity for PDE2, as compared to other PDE families, was assessed using the IMAP® technology. Human PDE10A2 enzyme was prepared from cytosolic fractions of transiently transfected HEK cells. All other PDE's were GST Tag human enzyme expressed in insect cells and were obtained from BPS Bioscience (San Diego, Calif.): PDE1A (Cat#60010), human PDE2A1 (Cat#60020), PDE3A (Cat#60030), PDE4A1A (Cat#60040), PDE5A1 (Cat#60050), PDE6C (Cat#60060), PDE7A (Cat#60070), PDE8A1 (Cat#60080), PDE9A2 (Cat#60090), PDE11A4 (Cat#60110).
Assays for PDE 1 through 11 were performed in parallel at room temperature in 384-well microtiter plates with an incubation volume of 20.2 μL. Solutions of test compounds were prepared in DMSO and serially diluted with DMSO to yield 30 μL of each of ten solutions differing by 3-fold in concentration, at 32 serial dilutions per plate. […] A Labcyte POD 810 (Labcyte, Sunnyvale, Calif.) was used to dispense 200 nL from each well of the titration plate to make eleven copies of the assay plate for each titration, one copy for each PDE enzyme. A solution of each enzyme (dilution from aliquots, sufficient to produce 20% substrate conversion) and a separate solution of FAM-labeled cAMP or FAM-labeled cGMP from Molecular Devices (Sunnyvale, Calif., product # R7506 or cGMP#R7508), at a final concentration of 50 nM were made in the assay buffer (10 mM Tris HCl, pH 7.2, 10 mM MgCl2, 0.05% NaN3 0.01% Tween-20, and 1 mM DTT). Note that the substrate for PDE2 is 50 nM FAM cAMP containing 1000 nM of cGMP. The enzyme and the substrate were then added to the assay plates in two consecutive additions of 10 μL and then shaken to mix. The reaction was allowed to proceed at room temperature for 60 minutes. A binding solution was then made from the kit components, comprised of 80% Solution A, 20% Solution B and binding reagent at a volume of 1/600 the total binding solution. The enzymatic reaction was stopped by addition of 60 μL of the binding solution to each well of the assay plate. The plates were sealed and shaken for 10 seconds. The plates were incubated at room temperature for one hour, then the parallel and perpendicular fluorescence was measured using a Tecan Genios Pro plate reader (Tecan, Switzerland). The apparent inhibition constants for the compounds against all 11 PDE's was determined from the parallel and perpendicular fluorescent readings as described for PDE10 FP assay using the following apparent KM values for each enzyme and substrate combination: PDE1A (FAM cGMP) 70 nM, human PDE2A1 (FAM cAMP) 10,000 nM, PDE3A (FAM cAMP) 50 nM, PDE4A1A (FAM cAMP) 1500 nM, PDE5A1 (FAM cGMP) 400 nM, PDE6C (FAM cGMP) 700 nM, PDE7A (FAM cAMP) 150 nM, PDE8A1 (FAM cAMP) 50 nM, PDE9A2 (FAM cGMP) 60 nM, PDE10A2 (FAM cAMP) 150 nM, PDE11A4 (FAM cAMP) 1000 nM. The intrinsic PDE2 inhibitory activity of a compound which may be used in accordance with the present invention may be determined by these assays.

T1 sequence (O00408 1-920 isoform O00408-2): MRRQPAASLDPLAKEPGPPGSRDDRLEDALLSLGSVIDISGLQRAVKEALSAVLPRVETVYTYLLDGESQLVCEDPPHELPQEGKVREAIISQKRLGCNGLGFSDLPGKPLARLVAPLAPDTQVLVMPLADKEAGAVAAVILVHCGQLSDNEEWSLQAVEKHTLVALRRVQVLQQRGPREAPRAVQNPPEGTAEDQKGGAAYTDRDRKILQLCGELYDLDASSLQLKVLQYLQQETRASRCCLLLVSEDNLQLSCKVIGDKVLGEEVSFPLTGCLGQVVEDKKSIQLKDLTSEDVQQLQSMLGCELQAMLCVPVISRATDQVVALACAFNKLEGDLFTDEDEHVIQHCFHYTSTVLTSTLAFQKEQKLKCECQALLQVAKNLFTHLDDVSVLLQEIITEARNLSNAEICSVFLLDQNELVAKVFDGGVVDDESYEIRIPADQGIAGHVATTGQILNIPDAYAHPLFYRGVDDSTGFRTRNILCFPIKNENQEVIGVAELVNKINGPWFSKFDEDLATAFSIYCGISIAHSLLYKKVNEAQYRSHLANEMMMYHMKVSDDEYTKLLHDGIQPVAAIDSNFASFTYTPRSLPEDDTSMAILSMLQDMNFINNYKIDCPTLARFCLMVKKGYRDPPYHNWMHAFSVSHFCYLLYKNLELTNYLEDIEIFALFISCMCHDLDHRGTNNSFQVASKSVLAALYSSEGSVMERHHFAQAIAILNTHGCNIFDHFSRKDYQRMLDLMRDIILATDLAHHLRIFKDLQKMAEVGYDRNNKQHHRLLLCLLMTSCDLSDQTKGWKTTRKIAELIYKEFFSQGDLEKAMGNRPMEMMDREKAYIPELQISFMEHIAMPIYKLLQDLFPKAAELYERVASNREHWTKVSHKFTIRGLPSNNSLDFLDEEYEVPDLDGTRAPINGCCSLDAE

SMILES	Ki
Cc1nc2c(c(CO)nn2C(C)c2ccc3c(c2)OC(F)(F)O3)c(=O)[nH]1 (single isomer, unassigned) [Example 115, (S)- or (R)-1-(1-(2,2-Difluorobenzo[d][1,3]dioxol-5-yl)ethyl)-3-(hydroxymethyl)-6-methyl-1H-pyrazolo[3,4-d]pyrimidin-4(5H)-one]	7.2 nM
Cc1nc2c(c(CO)nn2C(C)c2ccc(C(C)(F)F)cc2)c(=O)[nH]1 (single isomer, unassigned) [Example 116, (R)- or (S)-1-(1-(4-(1,1-Difluoroethyl)phenyl)ethyl)-3-(hydroxymethyl)-6-methyl-1H-pyrazolo[3,4-d]pyrimidin-4(5H)-one]	392 nM
Cc1nc2c(c(CO)nn2C(C)c2ccc(S(F)(F)(F)(F)F)cc2F)c(=O)[nH]1 (single isomer, unassigned) [Example 120]	496 nM
Cc1nc2c(c(CO)nn2C(C)c2ccc(S(F)(F)(F)(F)F)cc2F)c(=O)[nH]1 (single isomer, unassigned) [Example 121]	2.8 nM
Cc1nc2c(c(CO)nn2C(C)[C@H]2CC[C@H](C(F)(F)F)CC2)c(=O)[nH]1 (single isomer, unassigned) [Example 125, (S)- or (R)-3-(Hydroxymethyl)-6-methyl-1-((trans)-4-(trifluoro-methyl)cyclohexyl)ethyl)-1H-pyrazolo[3,4-d]pyrimidin-4(5H)-one]	26 nM
Cc1nc2c(c(CO)nn2C(C)c2ccc(C(F)(F)F)nc2)c(=O)[nH]1 (single isomer, unassigned) [Example 130, (R)- or (S)-3-(Hydroxymethyl)-6-methyl-1-(1-(6-(trifluoromethyl)pyridin-3-yl)ethyl)-1H-pyrazolo[3,4-d]pyrimidin-4(5H)-one]	≥ 2960 nM
CCC(c1ccc(C(F)(F)F)cc1)n1nc(CO)c2c(=O)[nH]c(C)nc21 (single isomer, unassigned) [Example 133, (S)- or (R)-3-(Hydroxymethyl)-6-methyl-1-(1-(4-(trifluoro-methyl)phenyl)propyl)-1H-pyrazolo[3,4-d]pyrimidin-4(5H)-one]	66 nM
Cc1nc2c(c(CO)nn2C(C)c2c(F)cc(C(F)(F)F)cc2F)c(=O)[nH]1 (single isomer, unassigned) [Example 136]	5 nM
Cc1nc2c(c(CO)nn2C(C)c2c(F)cc(C(F)(F)F)cc2F)c(=O)[nH]1 (single isomer, unassigned) [Example 137]	121 nM
Cc1nc2c(c(CO)nn2C(C)c2ccc(C(F)(F)F)c(I)c2)c(=O)[nH]1 (single isomer, unassigned) [Example 138, (R)- or (S)-3-(Hydroxymethyl)-1-(1-(3-iodo-4-(trifluoromethyl-)phenyl)ethyl)-6-methyl-1,5-dihydro-4H-pyrazolo[3,4-d]pyrimidin-4-one]	> 2960 nM
Cc1nc2c(c(CO)nn2C(C)c2ccc(C3(C)CC3)cc2)c(=O)[nH]1 (single isomer, unassigned) [Example 143, (R)- or (S)-3-(Hydroxymethyl)-6-methyl-1-(1-(4-(1-methylcyclopropyl)phenyl)ethyl)-1H-pyrazolo[3,4-d]pyrimidin-4(5H)-one]	193 nM

The remaining compounds from weak to strong by Ki, led by results:

Ki	SMILES
1210 nM	Cc1nc2c(c(CO)nn2C(C)c2ccc3c(c2)OC(F)(F)O3)c(=O)[nH]1 (single isomer, unassigned) [Example 114, (R)- or (S)-1-(1-(2,2-Difluorobenzo[d][1,3]dioxol-5-yl)ethyl)-3-(hydroxymethyl)-6-methyl-1H-pyrazolo[3,4-d]pyrimidin-4(5H)-one]
939 nM	Cc1nc2c(c(CO)nn2C(C)c2ccc(C(F)(F)F)cc2I)c(=O)[nH]1 (single isomer, unassigned) [Example 140, (R)- or (S)-3-(Hydroxymethyl)-1-(1-(2-iodo-4-(trifluoromethyl-)phenyl)ethyl)-6-methyl-1,5-dihydro-4H-pyrazolo[3,4-d]pyrimidin-4-one]
521 nM	Cc1nc2c(c(CO)nn2C(C)[C@H]2CC[C@H](C(F)(F)F)CC2)c(=O)[nH]1 (single isomer, unassigned) [Example 124, (R)- or (S)-3-(Hydroxymethyl)-6-methyl-1-((trans)-4-(trifluoromethyl)cyclohexyl) ethyl)-1H-pyrazolo[3,4-d]-pyrimidin-4(5H)-one]
323 nM	Cc1nc2c(c(CO)nn2C(C)c2ccc(OC(F)F)cc2F)c(=O)[nH]1 (single isomer, unassigned) [Example 118, (R)- or (S)-1-(1-(4-(Difluoromethoxy)-2-fluorophenypethyl)-3-(hydroxymethyl)-6-methyl-1H-pyrazolo[3,4-d]pyrimidin-4(5H)-one]
194 nM	Cc1nc2c(c(CO)nn2C(C)c2ccc(CC(F)(F)F)cc2)c(=O)[nH]1 (single isomer, unassigned) [Example 122, (R)- or (S)-3-(Hydroxymethyl)-6-methyl-1-(1-(4-(2,2,2-trifluoroethyl)phenyl)ethyl)-1H-pyrazolo[3,4-d]pyrimidin-4(5H)-one]
57 nM	Cc1nc2c(c(CO)nn2C(C)c2ccc(C(F)(F)F)nc2)c(=O)[nH]1 (single isomer, unassigned) [Example 131, (S)- or (R)-3-(Hydroxymethyl)-6-methyl-1-(1-(6-(trifluoro-methyl)pyridin-3-yl)ethyl)-1H-pyrazolo[3,4-d]pyrimidin-4(5H)-one]
51 nM	CCC(c1ccc(OC(F)(F)F)cc1)n1nc(CO)c2c(=O)[nH]c(C)nc21 (single isomer, unassigned) [Example 134, (R)- or (S)-3-(Hydroxymethyl)-6-methyl-1-(1-(4-(trifluoro-methoxy)phenyl)propyl)-1H-pyrazolo[3,4-d]pyrimidin-4(5H)-one]
12 nM	Cc1nc2c(c(CO)nn2C(C)c2ccc(C(F)(F)F)cc2I)c(=O)[nH]1 (single isomer, unassigned) [Example 141, (S)- or (R)-3-(Hydroxymethyl)-1-(1-(2-iodo-4-(trifluoromethyl-)phenyl)ethyl)-6-methyl-1,5-dihydro-4H-pyrazolo[3,4-d]pyrimidin-4-one]
5.6 nM	Cc1nc2c(c(CO)nn2C(C)c2ccc(C(F)(F)F)c(I)c2)c(=O)[nH]1 (single isomer, unassigned) [Example 139, (S)- or (R)-3-(Hydroxymethyl)-1-(1-(3-iodo-4-(trifluoromethyl-)phenyl)ethyl)-6-methyl-1,5-dihydro-4H-pyrazolo[3,4-d]pyrimidin-4-one]
2.7 nM	Cc1nc2c(c(CO)nn2C(C)c2ccc(OC(F)F)cc2F)c(=O)[nH]1 (single isomer, unassigned) [Example 119, (S)- or (R)-1-(1-(4-(Difluoromethoxy)-2-fluorophenypethyl)-3-(hydroxymethyl)-6-methyl-1H-pyrazolo[3,4-d]pyrimidin-4(5H)-one]
2.6 nM	Cc1nc2c(c(CO)nn2C(C)c2ccc(CC(F)(F)F)cc2)c(=O)[nH]1 (single isomer, unassigned) [Example 123, (S) or (R)-3-(Hydroxymethyl)-6-methyl-1-(1-(4-(2,2,2-trifluoroethyl)phenyl)ethyl)-1H-pyrazolo[3,4-d]pyrimidin-4(5H)-one]
1.1 nM	Cc1nc2c(c(CO)nn2C(C)c2ccc(C(C)(F)F)cc2)c(=O)[nH]1 (single isomer, unassigned) [Example 117, (S)- or (R)-1-(1-(4-(1,1-Difluoroethyl)phenyl)ethyl)-3-(hydroxymethyl)-6-methyl-1H-pyrazolo[3,4-d]pyrimidin-4(5H)-one]
1 nM	CCC(c1ccc(OC(F)(F)F)cc1)n1nc(CO)c2c(=O)[nH]c(C)nc21 (single isomer, unassigned) [Example 135, (S)- or (R)-3-(Hydroxymethyl)-6-methyl-1-(1-(4-(trifluoro-methoxy)phenyl)propyl)-1H-pyrazolo[3,4-d]pyrimidin-4(5H)-one]
